Results from patent US9579319B2 (Redx Pharma PLC, priority 2013, dated 2017).

Each molecule was assayed against Hedgehog signalling pathway (assay: Gli-reporter NIH3T3 luciferase assay (Hedgehog pathway inhibition)). Conditions: Gli-reporter NIH-3T3 cells, recombinant mouse sonic hedgehog, 24 hours, luminescence; read-out: Gli luc IC50.
Format: cell-based
Procedure: In vitro biological evaluation of compounds of the invention was carried out using the procedure detailed below. The procedure provides activity data for the compounds of the invention against the Hedgehog signalling pathway. The activity is represented as IC50 values in Table 12 below.
The Gli-reporter NIH3T3 cell line (BPS Biosciences) was grown according to the suppliers recommendations. Briefly, cells were maintained in growth medium (DMEM supplemented with 10% calf serum, 1% Penicillin/Streptomycin, and 500 µg/mL of Geneticin) and grown at 37° C., 5% CO2. In order to passage cells they were first rinsed with phosphate buffered saline before the addition of 0.05% Trypsin/EDTA. Fresh growth media was added and the cells were transferred to a centrifuge tube, spun and resuspended at an appropriate cell density.
Gli-reporter NIH-3T3 cells were seeded at 20,000 cells/well into 96 well, poly-D-lysine coated white clear bottomed full area TC plates in growth media (without geneticin). Three wells were left with just media as cell free controls. Cells were then incubated for 24 hours at 37° C. in a 5% CO2.
Serial dilutions of the test compounds were prepared in 100% DMSO. 10 μl of compound or DMSO from each well was pipetted into a sterile, 0.5 ml deep well conical bottomed 96 well plate (intermediate plate). 190 μl of warmed assay media (Opti-MEM supplemented with 0.5% calf serum, 1% non-essential amino acids, 1 mM sodium pyruvate, 10 mM HEPES, 1% penicillin/Streptomycin) was then added to each well and mixed five times at 180 μl by electronic pipette to ensure homogeneity of the compound solution. This 1:20 dilution gives a top concentration of 50 μM in 5% DMSO, 95% assay media. 10 μl was pipetted from each well of the intermediate plate into a second deep well sterile plate. 490 μl of warm assay media was then added to each well and mixed five times at 300 μl. This gives a final top concentration of 1 μM in 0.1% DMSO.
After the 24 hour incubation, media was carefully removed by pipette and replaced with 45 μl of compound dilutions in triplicate. This was incubated for one hour at 37° C. in a 5% CO2. After an hour, 5 μl 10 μg/mL recombinant mouse sonic hedgehog (R&D Systems) was added to each well and the plates were incubated for a further 24 hours at 37° C., 5% CO2.
After 24 hours, plates were removed from the incubator and left to acclimatise to room temperature for 20 minutes. 50 μl of OneGLO assay reagent (Promega) was then added to each well and the plates gently shaken for a further 30 minutes. Plates were then read for luminescence on the EnVision plate reader (PerkinElmer).

| IC50 | Molecule |
| --- | --- |
| > 200 nM | 1-[4,5-dimethyl-6-(2-methylpyrazol-yl)pyridazin-3-yl]-N-methyl-N-[[2-(trifluoromethoxy)phenyl]methyl]piperidin-4-amine [Example 89] |

Same assay, conditions: NIH3T3; Gli-reporter NIH-3T3 cells, recombinant mouse sonic hedgehog, 24 hours, luminescence; read-out: Category (Hedgehog pathway inhibition activity, IC50)

| IC50 | Molecule |
| --- | --- |
| < 10 nM | Cn1nccc1-c1nnc(N2CCC(NC(=O)Nc3ccc(F)cc3F)CC2)c2ccccc12 [Example 8] |
| < 10 nM | Cn1nccc1-c1nnc(N2CCC(NC(=O)NC3CCCCC3)CC2)c2ccccc12 [Example 11, 1-cyclohexyl-3-[1-[4-(2-methylpyrazol-3-yl)phthalazin-1-yl]-4-piperidyl]urea] |
| 10 to 200 nM | CN(Cc1ccccc1OC(F)F)C1CCN(c2nnc(-c3ccnn3C)c3ccccc23)CC1 [Example 12, N-[[2-(difluoromethoxy)phenyl]methyl]-N-methyl-1-[4-(2-methylpyrazol-3-yl)phthalazin-1-yl]piperidin-4-amine] |
| < 10 nM | Cn1nccc1-c1nnc(N2CCC(NC(=O)Nc3cccc(C(F)(F)F)c3)CC2)c2ccccc12 [Example 13, 1-[1-[4-(2-methylpyrazol-3-yl)phthalazin-1-yl]-4-piperidyl]-3-[3-(trifluoromethyl)phenyl]urea] |
| < 10 nM | Cn1nccc1-c1nnc(N2CCC(NC(=O)Nc3ccc(C(F)(F)F)cc3)CC2)c2ccccc12 [Example 14, 1-[1-[4-(2-methylpyrazol-3-yl)phthalazin-1-yl]-4-piperidyl]-3-[4-(trifluoromethyl)phenyl]urea] |
| < 10 nM | COc1ccccc1NC(=O)NC1CCN(c2nnc(-c3ccnn3C)c3ccccc23)CC1 [Example 15, 1-(2-methoxyphenyl)-3-[1-[4-(2-methylpyrazol-3-yl)phthalazin-1-yl]-4-piperidyl]urea] |
| < 10 nM | Cn1nccc1-c1nnc(N2CCC(NC(=O)Nc3cccc(F)c3)CC2)c2ccccc12 [Example 16, 1-(3-fluorophenyl)-3-[1-[4-(2-methylpyrazol-3-yl)phthalazin-1-yl]-4-piperidyl]urea] |
| 10 to 200 nM | CSc1ccccc1CNC1CCN(c2nnc(-c3ccnn3C)c3ccccc23)CC1 [Example 17, 1-[4-(2-methylpyrazol-3-yl)phthalazin-1-yl]-N-[(2-methylsulfanylphenyl)methyl]piperidin-4-amine] |
| 10 to 200 nM | Cn1nccc1-c1nnc(N2CCC(NCc3ccc(F)nc3C(F)(F)F)CC2)c2ccccc12 [Example 18, N-[[6-fluoro-2-(trifluoromethyl)-3-pyridyl]methyl]-1-[4-(2-methylpyrazol-3-yl)phthalazin-1-yl]piperidin-4-amine] |
| 10 to 200 nM | Cn1nccc1-c1nnc(N2CCC(NCc3ccc(F)cc3Cl)CC2)c2ccccc12 [Example 19, N-[(2-chloro-4-fluoro-phenyl)methyl]-1-[4-(2-methylpyrazol-3-yl)phthalazin-1-yl]piperidin-4-amine] |
| 10 to 200 nM | Cn1nccc1-c1nnc(N2CCC(NCc3ccc(OC(F)(F)F)cc3)CC2)c2ccccc12 [Example 20, 1-[4-(2-methylpyrazol-3-yl)phthalazin-1-yl]-N-[[4-(trifluoromethoxy)phenyl]methyl]piperidin-4-amine] |
| < 10 nM | Cn1nccc1-c1nnc(N2CCC(NC(=O)Nc3ccccc3C(F)(F)F)CC2)c2ccccc12 [Example 21, 1-[1-[4-(2-methylpyrazol-3-yl)phthalazin-1-yl]-4-piperidyl]-3-[2-(trifluoromethyl)phenyl]urea] |
| < 10 nM | Cn1nccc1-c1nnc(N2CCC(NC(=O)Nc3cccc(C#N)c3)CC2)c2ccccc12 [Example 22, 1-(3-cyanophenyl)-3-[1-[4-(2-methylpyrazol-3-yl)phthalazin-1-yl]-4-piperidyl]urea] |
| < 10 nM | Cn1nccc1-c1nnc(N2CCC(NC(=O)Nc3ccc(F)cc3C(F)(F)F)CC2)c2ccccc12 [Example 23, 1-[4-fluoro-2-(trifluoromethyl)phenyl]-3-[1-[4-(2-methylpyrazol-3-yl)phthalazin-1-yl]-4-piperidyl]urea] |

Same assay, conditions: NIH3T3; Gli-reporter NIH-3T3 cells, recombinant mouse sonic hedgehog, 24 hours, luminescence; read-out: Gli Luc nM (IC50)

| IC50 | Molecule |
| --- | --- |
| 0.99 nM | Cn1nccc1-c1nnc(N2CCC(NC(=O)Nc3ccc(F)cc3F)CC2)c2ccccc12 [Example 8] |
| 0.71 nM | Cn1nccc1-c1nnc(N2CCC(NC(=O)Nc3ccc(C(F)(F)F)cc3)CC2)c2ccccc12 [Example 14, 1-[1-[4-(2-methylpyrazol-3-yl)phthalazin-1-yl]-4-piperidyl]-3-[4-(trifluoromethyl)phenyl]urea] |
| 0.66 nM | Cn1nccc1-c1nnc(N2CCC(NC(=O)Nc3ccc(F)cc3C(F)(F)F)CC2)c2ccccc12 [Example 23, 1-[4-fluoro-2-(trifluoromethyl)phenyl]-3-[1-[4-(2-methylpyrazol-3-yl)phthalazin-1-yl]-4-piperidyl]urea] |
